Measurements published in paper PMC7689813 (Journal of Clinical Pharmacology, 2020).
Where “and” joins values, the source holds several entries; their conditions need not be identical. Equal values may be shown once. Entries after “also recorded” stand apart in the source; their conditions may differ.

Legend:
[1] = tested on: CYP3A; test: Clinical DDI study: elagolix 150 mg once daily effect on midazolam; settings: male participants
[2] = tested on: CYP2B6; test: Clinical DDI study: elagolix effect on bupropion; type: in vivo, human; settings: for Change in AUC values / Increase in Cmax: single dose bupropion after 10 days of elagolix 300 mg twice daily
[3] = molecular target: P‐gp (Homo sapiens, UniProt P08183); test: Clinical DDI study: elagolix effect on digoxin
P‐gp (Homo sapiens, UniProt P08183), sequence (P08183 whole entry): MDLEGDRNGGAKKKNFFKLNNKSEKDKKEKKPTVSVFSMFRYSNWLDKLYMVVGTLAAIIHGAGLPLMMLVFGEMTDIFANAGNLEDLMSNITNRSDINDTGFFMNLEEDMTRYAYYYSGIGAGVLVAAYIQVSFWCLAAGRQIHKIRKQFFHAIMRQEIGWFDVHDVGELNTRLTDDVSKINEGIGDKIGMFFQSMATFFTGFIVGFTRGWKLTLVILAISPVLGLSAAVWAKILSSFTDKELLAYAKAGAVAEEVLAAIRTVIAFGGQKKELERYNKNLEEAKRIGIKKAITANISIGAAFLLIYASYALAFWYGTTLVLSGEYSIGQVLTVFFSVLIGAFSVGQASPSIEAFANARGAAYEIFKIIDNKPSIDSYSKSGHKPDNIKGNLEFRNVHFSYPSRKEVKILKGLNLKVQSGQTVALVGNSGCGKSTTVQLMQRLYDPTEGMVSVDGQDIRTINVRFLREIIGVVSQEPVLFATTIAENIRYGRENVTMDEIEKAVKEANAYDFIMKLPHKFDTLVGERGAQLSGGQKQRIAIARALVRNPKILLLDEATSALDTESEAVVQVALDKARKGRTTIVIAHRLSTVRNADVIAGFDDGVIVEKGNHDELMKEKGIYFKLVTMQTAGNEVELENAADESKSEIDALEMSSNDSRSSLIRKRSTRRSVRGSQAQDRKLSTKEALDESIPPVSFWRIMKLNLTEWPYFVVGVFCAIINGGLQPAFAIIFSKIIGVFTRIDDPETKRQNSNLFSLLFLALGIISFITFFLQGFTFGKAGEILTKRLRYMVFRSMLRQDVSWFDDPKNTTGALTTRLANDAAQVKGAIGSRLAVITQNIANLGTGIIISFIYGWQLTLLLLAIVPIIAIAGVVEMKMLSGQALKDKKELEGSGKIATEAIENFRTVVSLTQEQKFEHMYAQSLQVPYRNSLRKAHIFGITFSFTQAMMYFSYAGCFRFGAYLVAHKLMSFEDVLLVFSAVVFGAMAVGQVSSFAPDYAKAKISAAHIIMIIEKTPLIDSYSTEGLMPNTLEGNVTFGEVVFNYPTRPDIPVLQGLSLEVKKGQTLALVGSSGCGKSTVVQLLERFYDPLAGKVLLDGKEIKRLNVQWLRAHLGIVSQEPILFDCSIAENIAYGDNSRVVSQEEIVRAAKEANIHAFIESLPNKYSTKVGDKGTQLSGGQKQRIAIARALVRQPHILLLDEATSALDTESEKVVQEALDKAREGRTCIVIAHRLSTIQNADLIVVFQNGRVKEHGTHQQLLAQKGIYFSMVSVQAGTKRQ

[4] = Safety and tolerability in the 9 phase 1 DDI studies; type: in vivo, human; settings: for Participants reporting 1 or more TEAE: ketoconazole study
[5] = tested on: CYP3A; test: Clinical DDI study: elagolix 300 mg twice daily effect on midazolam
[6] = tested on: OATP1B1/B3 and BCRP; test: Clinical DDI study: elagolix and rosuvastatin; type: in vivo, human; settings: for Increase in rosuvastatin Cmax: first (single) dose of elagolix 300 mg
[7] = Clinical DDI study: elagolix and fluconazole
[8] = background; cited from earlier work
[9] = cited from earlier work
[10] = tested on: P‐gp; settings: cited from earlier work
[11] = tested on: OATP1B1; settings: cited from earlier work
[12] = tested on: breast cancer resistance protein (BCRP); settings: cited from earlier work
[13] = tested on: OATP1B1, CYP3A and P‐gp; test: Clinical DDI study: single and multiple dose rifampin effect on elagolix
[14] = tested on: CYP2C19; settings: cited from earlier work
[15] = tested on: CYP2C19; settings: cited from earlier work; remark: listed apart in the source
[16] = tested on: CYP3A and P‐gp; test: Clinical DDI study: ketoconazole effect on elagolix; type: in vivo, human
[17] = Clinical DDI study: elagolix and sertraline
[18] = tested on: CYP3A4; settings: cited from earlier work
[19] = either single dose or multiple doses (10 days) of elagolix 200 mg twice daily
[20] = multiple doses of rifampin (dosing for 10 days) vs elagolix alone
[21] = first dose of elagolix 300 mg twice daily, female participants
[22] = multiple doses of elagolix 300 mg twice daily

With `OCc1ncc2n1-c1ccc(Cl)cc1C(c1ccccc1F)=NC2` [1‐OH‐midazolam, 1-hydroxymidazolam] the “Increase in 1‐OH‐midazolam exposures” value ([1]; elagolix 150 mg once daily) was “up to 11%”.

In the case of `C[C@H]1NC(C)(C)CO[C@]1(O)c1cccc(Cl)c1` [OH‐bupropion, hydroxybupropion], the “Change in AUC values” [2] was at most 9% and the “Increase in Cmax” value [2] was 32%.

In the case of `CC(NC(C)(C)C)C(=O)c1cccc(Cl)c1` (centres unmarked) [bupropion], the “Increase in bupropion PK” value ([2]; elagolix 300 mg twice daily) was at most 25%, the “Change in AUC values” [2] was at most 9% and the “Increase in Cmax” value [2] was 25%.

For `C[C@H]1O[C@@H](O[C@H]2[C@@H](O)C[C@H](O[C@H]3[C@@H](O)C[C@H](O[C@H]4CC[C@@]5(C)[C@H](CC[C@@H]6[C@@H]5C[C@@H](O)[C@]5(C)[C@@H](C7=CC(=O)OC7)CC[C@]65O)C4)O[C@@H]3C)O[C@@H]2C)C[C@H](O)[C@@H]1O` [digoxin], the “Increase in digoxin AUC” value [3, 19] was about 30%, the “Increase in digoxin Cmax” value [3, 19] was “approximately 70%” and the “Digoxin t½ alone vs in the presence of elagolix” value ([3]; elagolix 200 mg twice daily) was “similar”.

For `COc1cccc(-c2c(C)n(Cc3c(F)cccc3C(F)(F)F)c(=O)n(C[C@H](NCCCC(=O)O)c3ccccc3)c2=O)c1F` [elagolix, sodium R‐(+)‐4‐{2‐[5‐(2‐fluoro‐3‐methoxyphenyl)‐3‐(2‐fluoro‐6‐[trifluoromethyl]benzyl)‐4 ‐methyl‐2,6‐dioxo‐3,6‐dihydro‐2H‐pyrimidin‐1‐yl]‐1‐phenylethylamino}butyrate], the “Changes in vital sign values, ECG parameters, physical examination findings, laboratory measurements” value ([4]; across all studies) was “no clinically significant changes”, the “Most common adverse events assessed as mild and reasonably related to elagolix” value ([4]; across all studies) was “hot flush, headache, nausea, and amenorrhea” and the “Severe adverse events (all assessed as not related to elagolix)” value ([4]; across all studies) was 3. For the same compound, the Tolerability ([4]; elagolix and coadministered drugs across regimens, 144 female and male participants, 9 phase 1 studies) was “generally well tolerated”, the “Participants reporting 1 or more TEAE” value ([4]; elagolix‐alone portion of the test regimen) was “zero” and the “Classification of elagolix as inducer of CYP3A” value ([5]; depending on the dose administered (150 mg once daily, 300 mg twice daily), midazolam studies) was “weak or moderate inducer; also recorded: weak to moderate inducer”. The “Effect of rosuvastatin on elagolix exposure” value ([6]; rosuvastatin 20 mg once daily, elagolix 300 mg twice daily) was “no effect”, the “Increase in elagolix steady‐state Cmax” value ([7]; 10 days of elagolix 300 mg twice daily, single dose of fluconazole 200 mg) was “approximately 30%” and the “Classification of elagolix as inhibitor of efflux transporter P‐gp” value ([3]; mechanistic clinical studies) was “weak inhibitor”. The “Common adverse reactions associated with elagolix” value [8] was “hot flush, headache, and nausea”, the “Excreted unchanged in urine” value [9] was “less than 3%” and the “Plasma exposure of elagolix metabolites relative to the parent compound” value [9] was “less than 3%”. For the same compound, the “Dose proportionality of exposure” value ([9]; from 100 to 400 mg twice daily) was “approximately dose proportional”, the “Apparent terminal‐phase elimination half‐life (t½)” value ([9]; oral) was 4 to 6 h and the “Time to mean maximum observed plasma concentration (Tmax)” value ([9]; oral) was “approximately 1 hour”. The “In vitro effect on P‐gp” value [10] was “inhibitor”, the “In vitro effect on OATP1B1” value [11] was “inhibitor” and the “In vitro effect on BCRP” value [12] was “inhibitor”. For the same compound, the “Increase in elagolix exposures (Cmax and AUC)” value ([13]; multiple days of rifampin dosing) was at most 2 fold, the “Increase in elagolix AUC” value [13, 20] was ~2 fold and 1.7 fold and the “Increase in elagolix Cmax” value [13, 20] was 2.0 fold. The “Increase in elagolix exposures (Cmax and AUC)” value ([13]; single dose of rifampin) was < 6 fold and > 4.4 fold, the “Increase in elagolix Cmax” value ([13]; with a single dose of rifampin 600 mg vs elagolix alone) was 4.4 fold and the “Classification of elagolix as inhibitor of CYP2C19” value [14] was “weak inhibitor”. For the same compound, the “In vitro effect on CYP2C19” value [15] was “inhibitor”, the “Classification of elagolix as CYP3A (or P‐gp) substrate” value ([16]; based on ketoconazole study vs FDA criterion (≥5‐fold increase)) was “not considered a sensitive CYP3A substrate” and the “Elagolix half‐life with vs without ketoconazole coadministration” value ([16]; elagolix 150 mg single dose, ketoconazole 400 mg once daily) was “similar”. The “Effect of sertraline on elagolix plasma exposures (Cmax and AUC)” value ([17]; single‐dose 300‐mg elagolix, sertraline 25 mg once daily for 10 days) was “not affected; also recorded: did not affect”, the “In vitro effect on CYP3A4” value [18] was “inducer” and the “In vitro metabolism (enzyme)” value [18] was “metabolized primarily by the cytochrome P450 (CYP) enzyme CYP3A4”.

With `OC(Cn1cncn1)(Cn1cncn1)c1ccc(F)cc1F` [fluconazole] the “Changes in exposure on coadministration of elagolix with fluconazole” value ([7]; abstract summary) was “No clinically significant changes in exposure” and the “Effect of elagolix on fluconazole exposures (Cmax and AUC)” value ([7]; elagolix 300 mg twice daily, fluconazole 200 mg single dose) was “not affected; also recorded: did not affect”.

In the case of `CC(=O)N1CCN(c2ccc(OCC3COC(Cn4ccnc4)(c4ccc(Cl)cc4Cl)O3)cc2)CC1` (centres unmarked) [ketoconazole, reference compound], the “Participants reporting 1 or more TEAE” value ([4]; ketoconazole‐alone portion of the test regimen) was 82%.

With `Cc1ncc2n1-c1ccc(Cl)cc1C(c1ccccc1F)=NC2` [midazolam] the “Increase in midazolam AUC” value [5, 21] was about 27%, the “Increase in midazolam Cmax” value [5, 21] was “approximately 18%” and the “Decrease in midazolam Cmax” value ([5]; multiple doses of elagolix 300 mg twice daily (11 days of dosing), female participants) was “approximately 44%”. For the same compound, the “Decrease in midazolam AUC” value ([1]; multiple doses of elagolix 150 mg once daily) was about 35% and the “Decrease in midazolam AUC” value ([1]; single dose of elagolix 150 mg once daily) was “approximately 21%”.

With `CC(C)c1nc(N(C)S(C)(=O)=O)nc(-c2ccc(F)cc2)c1/C=C/[C@@H](O)C[C@@H](O)CC(=O)O` [rosuvastatin] the “Increase in rosuvastatin Cmax” value [6] was “approximately 67%”, the “Increase in rosuvastatin Cmax” value ([6]; listed as Rosuvastatin) was 67% and the “Change in rosuvastatin AUC” value ([6]; first dose of elagolix 300 mg twice daily) was “no significant change”. For the same compound, the “Change in rosuvastatin Cmax (steady state)” value [6, 22] was “not significantly changed; also recorded: no change”.

For `CN[C@H]1CC[C@@H](c2ccc(Cl)c(Cl)c2)c2ccccc21` [sertraline, reference compound], the “Changes in exposure on coadministration of elagolix with sertraline” value ([17]; abstract summary) was “No clinically significant changes in exposure” and the “Increase in sertraline steady‐state Cmax” value [17, 22] was 34%.
